Source: ChEMBL document CHEMBL1129204, “Synthesis of ribofuranosyl glycosides of echiguanines A and B, inhibitors of phosphatidylinositol 4-kinase” (Bioorg Med Chem Lett, 1996)
Values after ≈ are worked out from the molar mass of the structure shown.

Columns and labels:
[1] = target: T1, Phosphatidylinositol 4-kinase, PI4K (Homo sapiens, UniProt Q9BTU6+Q8TCG2+Q9UBF8+P42356); experiment: Inhibition of phosphatidylinositol 4-kinase at 100 ug/ml (weak inhibition); format: protein assay
[2] = target: T1, Phosphatidylinositol 4-kinase, PI4K; experiment: Inhibition of phosphatidylinositol 4-kinase; format: protein assay

SMILES | IC50 [1] | IC50 [2]
N=C(N)CCNC(=O)c1cn(C2O[C@H](CO)C(O)[C@H]2O)c2nc(N)nc(O)c12 (single isomer, unassigned) | weak inhibition | –
N=C(N)CCNC(=O)c1c[nH]c2nc(N)nc(O)c12 [ECHIGUANINE A] | – | 0.03 µg/mL (≈ 0.114 µM)
